This note sets out measurements from patent US20050101575A1, “Vitamin d3 derivatives and remedies using the same” (priority 2003, published 2005).

SMILES strings stand for the structures.

The subject of the assay is HL-60 cell. As to the kind of experiment: Vitamin D3 antagonist effect: suppression of HL-60 cell differentiation induced by 1α,25-dihydroxyvitamin D3 (NBT reduction activity). It counts as cell-based. As to conditions: Homo sapiens, HL-60, 96 h, simultaneous treatment with 1α,25-dihydroxyvitamin D3 (1×10^−8 M); compound 1×10^−9 to 1×10^−6 M; 4 days at 37° C.; read-out: IC50 (nM), suppression of NBT reduction activity induction in HL-60 cell. From the text:
(1) HL-60 cell line which had been purchased from a cell bank (Japanese Cancer Research Resource Bank, Cell No: JCRB0085) was used. The cell line was stored as a frozen storage stock to prevent the change of cell characteristics attributable to successive cultivations. Prior to the initiation of experiments, the cells were defrosted and successive culturing was stared. For the experiments, cells whose successive culturing was from one month to about a half year were used. The successive culturing was carried out by centrifugally collecting cells which were in the state of suspension culture, and diluting the collected cell concentrate with a fresh culture medium at a ratio of about 1/100 (1-2×10^4 cells/ml). As the culture medium, an RPMI-1640 medium containing 10% fetal bovine serum was used.
The cells which were under successive culturing in the above process (1) were centrifugally collected, and they were dispersed in a culture medium at the cell concentration of 2×10^4 cells/ml. The dispersion was seeded into a 24-well culture schale at 1 ml/well. […] As the control, ethanol was added at 1 μl/well. After culturing at 37° C. for 4 days in the presence of 5% CO2, the cells were centrifugally collected.
(3) As the parameter of differentiation inducing effect on HL-60 cells, the induction of nitroblue tetrazonium (henceforth, NBT) reduction activity was used. The NBT reduction activity was determined according to the following procedure. That is, centrifugally collected cells were suspended in a fresh culture medium, and subsequently NBT and 12-O-tetradecanoylphorbol-13-acetate were added in such a manner that their concentrations became 0.1% and 100 ng/ml, respectively. After the mixed suspension was incubated at 37° C. for 25 min, a cytospin specimen was prepared. After air drying, it was stained with Kernechtrot, and the ratio of the positive cells of NBT reduction activity was determined under an optical microscope. Percentage ratios of the positive cell ratio in a simultaneous treatment with 1 α,25-dihydroxyvitamin D3 (1×10^−8 M) and a compound of the present invention at various treating concentrations (1×10^−9 to 1×10^−6 M) to that in a single treatment with 1 α,25-dihydroxyvitamin D3 (1×10^−8 M) were plotted against treating concentrations of the compound of the present invention, and the treating concentration of the compound of the present invention at which the percentage ratio became 50% was determined as IC50 value (nM).
On to `C=C1CC([C@@H](C)[C@H]2CC[C@H]3/C(=C/C=C4/C[C@@H](O)C[C@H](O)C4=C)CCC[C@]23C)OC1=O` (stereo partly drawn) [Compound No. 11a, 20(R)-(tetrahydro-3-vinylidene-2-furanon-5-yl)-9,10-secopregna-5(Z), 7(E), 10(19)-triene-1(S),3(R)-diol], for which the IC50 lay in the range of 50 to 150 nM.

For the molecule `C=C1C[C@H](C[C@@H](C)[C@H]2CC[C@H]3/C(=C/C=C4/C[C@H](O)[C@H](C)[C@H](O)C4=C)CCC[C@]23C)OC1=O` [Compound No. 22b, 2(S)-methyl-20(R)-(tetrahydro-3-vinylidene-2-furanon-5-(S)-yl)methyl-9,10-s ecopregna-5(Z),7(E), 10(19)-triene-1(S),3(S)-diol], the IC50 is less than 50 nM.

For `C=C1C[C@H](C[C@@H](C)[C@H]2CC[C@H]3/C(=C/C=C4/C[C@@H](O)[C@H](C)[C@H](O)C4=C)CCC[C@]23C)OC1=O` [Compound No. 22d, 2(S)-methyl-20(R)-(tetrahydro-3-vinylidene-2-furanon-5-(S)-yl)methyl-9,10-s ecopregna-5(Z),7(E),10(19)-triene-1(S),3(R)-diol], the 50% inhibitory concentration (IC50) was less than 50 nM. On to `C=C1CC(/C=C/[C@@H](C)[C@H]2CC[C@H]3/C(=C/C=C4/C[C@@H](O)C[C@H](O)C4=C)CCC[C@]23C)OC1=O` (some centres unmarked) [Compound No. 31b], for which the IC50 is less than 50 nM. Regarding `C=C1CC(/C=C/[C@@H](C)[C@H]2CC[C@H]3/C(=C/C=C4/C[C@@H](O)[C@H](C)[C@H](O)C4=C)CCC[C@]23C)OC1=O` (stereo partly drawn) [Compound No. 32a, 2(S)-methyl-20(R)-(2-(tetrahydro-3-vinylidene-2-furanon-5-yl)-1(E)-ethenyl)-9,10-secopregna-5(Z), 7(E), 10(19)-triene-1(S), 3(R)-diol], the half-maximal inhibitory concentration (IC50) was less than 50 nM.

As a reminder, the IC50 is the concentration at which inhibition is half-maximal.
